Values joined by “and” are separate entries in the source; they are usually repeats but may differ in a detail not shown here. Equal entries are not always repeated.
Key:
[1] = target: T1, KalbSec14 (Rattus norvegicus, UniProt P97924, N62Y/T46S); experiment: Liposome flotation binding assay (Accudenz gradient, Western blot); conditions: for binding of Kal^bSec14 to liposomes containing the lipid: Golgi-mixture liposomes with 8% test lipid, result in words; for Fraction 1 protein content (top fraction, liposome-bound), densitometry, Ave. / Fraction 2 protein content, densitometry, Ave. / Fraction 3 protein content, densitometry, Ave. / Fraction 4 protein content (bottom fraction, unbound), densitometry, Ave.: mean of independent experiments; for Fraction 1 protein content (top fraction, liposome-bound), densitometry: normalized to total protein recovered from each gradient
T1 construct: His6 (TEV-cleavable) (N, cleaved yes); made in house; host or cells: E. coli BL21(DE3)
Experimental: Unilamellar liposomes formed by mixing synthetic dioleoyl phospholipids and cholesterol in proportions mimicking the membranes of the trans-Golgi network (Golgi-mixture) were incubated with Kal^bSec14. An Accudenz gradient was used to separate liposome-bound proteins, which were recovered from the top of the gradient (fraction 1), from unbound proteins, which remained at the bottom (fraction 4). Protein levels in each fraction were analyzed by Western blotting with an antibody to the Sec14 domain of Kalirin.
(§1) The synthetic and natural lipids used in flotation assays were purchased from Avanti Polar Lipids, Inc. (Supplementary Table 2). All powdered lipids were dissolved in chloroform per the manufacturer’s instructions. Liposomes were prepared as previously described. […] Individual test lipids were dried together with the control lipid mix under a nitrogen stream and lyophilized overnight. Each dried lipid film was reconstituted to a final concentration of 1 mM in HN buffer containing 20 mM HEPES (pH 7.4) and 150 mM NaCl. Each final lipid mixtures consisted of 52% DOPC, 20% DOPE, 5% DOPS, 15% cholesterol and 8% tested lipid; inclusion of a trace amount of fluorescent lipid (Liss Rhod PE) allowed for localization of liposomes following gradient fractionation (see below). Each lipid mixture underwent five freeze-thaw cycles separated by vigorous vortexing each time it was thawed. Using a mini-extruder, unilamellar liposomes were prepared by passing each lipid mixture 21 times through a polycarbonate membrane of 100-nm pore size. Hydrated lipid mixtures were stored at −20 °C for up to 1 month; liposomes were freshly prepared for each experiment.
(§2) Flotation assays were conducted following the protocol previously described. Accudenz (Accurate Chemical and Scientific Corp., Westbury, NY) solutions (80 and 20% weight/vol) were prepared in HN buffer. To remove any particulate material, the protein to be tested was first centrifuged at 436,000 g at 4 °C for 15 min in a TL-100 ultracentrifuge using a Beckman TLA100.2 fixed angle rotor. Freshly prepared unilamellar liposomes (50 μl) were combined with 0.2 μg of the centrifuged protein and incubated at room temperature for 30 min. The entire liposome/protein mixture was then combined with 50 μl of 80% Accudenz at the bottom of an ultracentrifuge tube and carefully mixed to completion by pipetting. The resulting mixture was overlayered with […] of 20% Accudenz and then with 50 μl of HN buffer. Samples were centrifuged at 259,000 g at 4 °C for 30 min in the same ultracentrifuge using a Beckman TLS55 swinging bucket rotor. Gradients were then divided into four 100-μl fractions, which were carefully collected from the bottom of the tube using gel loading micropipette tips. Each fraction was analyzed for liposome and protein content using spectrophotometry (546-nm excitation/571-nm emission) and Western blot, respectively. Only those assays with at least 90% of the Liss Rhod PE marker recovered in the top fraction (fraction 1) were used for Western bloting analysis.
(§3) For Western bloting analysis, equal aliquots of each gradient fraction were denatured in 1× Laemmli sample buffer, fractionated on 15% acrylamide gels, and transferred to PVDF membranes. The protein content was detected using a custom-made rabbit antibody to the Sec14 domain of Kalirin (CT302[69], 1:3000) and an HRP-tagged goat anti-rabbit IgG (H + L) secondary antibody (catalog # 31460, 1:6000; ThermoFisher Scientific). SuperSignal West chemiluminescent substrate (Thermo Scientific) and a Syngene PXi digital imaging system (Synoptics Group) were used to visualize blots, with exposures adjusted to be in the linear range.

[2] = target: T2, Kal^Sec14 (Rattus norvegicus, UniProt P97924, N62Y/T46S); experiment: as above; conditions: Suppl. Fig. 9b,c; for Densitometry values for the Western blots, Fraction 1, Ave. / Densitometry values for the Western blots, Fraction 2, Ave. / Densitometry values for the Western blots, Fraction 3, Ave. / Densitometry values for the Western blots, Fraction 4, Ave.: average, biological replication ≥ 3; for Densitometry values for the Western blots, Fraction 1 / Densitometry values for the Western blots, Fraction 2 / Densitometry values for the Western blots, Fraction 3 / Densitometry values for the Western blots, Fraction 4: individual experiments (Exp. 1-4)
T2 construct: 19.4 kDa); His6 (TEV-cleavable) (N, cleaved yes); made in house; host or cells: E. coli BL21(DE3)
Experimental: as §1, §2
as §3, with “range. After background subtraction, bands were quantified using the GeneSys software provided with the imaging system, and data were represented as a proportion of total protein recovered. Uncropped blots, quantification of each data point and exact P-values are provided in the Source Data file. […]” for “range.”
a. Representative Western blots from flotation assays with Kal Sec14 alone (Control), and Kal Sec14 with the control lipid mix (Lipo) or with the lipid mix containing the indicated additional lipid. After binding and separation of liposome bound Kal Sec14 from unbound Kal Sec14 on Accudenz gradients, the protein content of four gradient fractions was dete rmined by immunoblot; liposomes were recovered from the top fraction (fraction 1). Source data are […]

[3] = target: T1, KalbSec14; experiment: Isothermal titration calorimetry (preliminary); assay type: binding; conditions: preliminary ITC, data not shown
[4] = normalized to total protein recovered, test lipid 8% of liposome lipid
[5] = single experiments, normalized to total protein recovered, test lipid 8% of liposome lipid
[6] = single experiments, test lipid 8% of liposome lipid

SMILES | binding of Kal^bSec14 to liposomes containing the lipid [1] | Fraction 1 protein content (top fraction, liposome-bound), densitometry, Ave. [1, 4] | Fraction 2 protein content, densitometry, Ave. [1, 4] | Fraction 3 protein content, densitometry, Ave. [1, 4] | Fraction 4 protein content (bottom fraction, unbound), densitometry, Ave. [1, 4] | Fraction 2 protein content, densitometry [1, 5] | Fraction 3 protein content, densitometry [1, 5] | Fraction 4 protein content (bottom fraction, unbound), densitometry [1, 5] | Densitometry values for the Western blots, Fraction 1, Ave. [2] | Densitometry values for the Western blots, Fraction 2, Ave. [2] | Densitometry values for the Western blots, Fraction 3, Ave. [2] | Densitometry values for the Western blots, Fraction 4, Ave. [2] | Densitometry values for the Western blots, Fraction 1 [2] | Densitometry values for the Western blots, Fraction 2 [2] | Densitometry values for the Western blots, Fraction 3 [2] | Densitometry values for the Western blots, Fraction 4 [2] | Fraction 1 protein content (top fraction, liposome-bound), densitometry [1, 6] | ITC signal [3]
CCCCCCCCCCCCCC(=O)OC[C@@H](O)COP(=O)(O)OCC(O)CO (mixture of isomers) [LPG14:0, 1-myristoyl-2-hydroxy-sn-glycero-3-phospho-(1'-rac-glycerol)] | fail to interact | 0.05 | 0.00765 | 0.0849 | 0.86 | 0.00729 and 0.00538 and 0.01 | 0.07 and 0.09 | 0.89 and 0.86 and 0.83 | 0.05 | 0.0118 | 0.0754 | 0.86 | 0.0538 and 0.045 and 0.06 | 0.00506 and 0.000399 and 0.03 | 0.0633 and 0.055 and 0.11 | 0.88 and 0.90 and 0.80 |  | 
CCCCCCCCCCOP(=O)([O-])OCC[N+](C)(C)C [FC10, decylphosphocholine] |  |  |  |  |  |  |  |  |  |  |  |  |  |  |  |  |  | no ITC signal was observed
CCCCCCCCCCCCC(=O)OC[C@@H](O)COP(=O)(O)OC1C(O)C(O)C(O)C(O)C1O (some centres unmarked) [LPI13:0, 1-tridecanoyl-2-hydroxy-sn-glycero-3-phospho-(1'-myo-inositol)] | fail to interact | 0.028 | 0.00535 | 0.18 | 0.79 |  |  | 0.70 and 0.76 and 0.89 | 0.0225 | 0.0117 | 0.17 | 0.80 | 0.0325 and 0.0143 and 0.02 | 0.00684 and 0.00931 and 0.019 | 0.10 and 0.16 and 0.24 | 0.86 and 0.82 and 0.72 | 0.0252 and 0.03 | 

Second part, the compound after the results:

binding of Kal^bSec14 to liposomes containing the lipid [1] | Fraction 1 protein content (top fraction, liposome-bound), densitometry, Ave. [1, 4] | Fraction 2 protein content, densitometry, Ave. [1, 4] | Fraction 3 protein content, densitometry, Ave. [1, 4] | Fraction 4 protein content (bottom fraction, unbound), densitometry, Ave. [1, 4] | Fraction 2 protein content, densitometry [1, 5] | Fraction 3 protein content, densitometry [1, 5] | Fraction 4 protein content (bottom fraction, unbound), densitometry [1, 5] | Densitometry values for the Western blots, Fraction 1, Ave. [2] | Densitometry values for the Western blots, Fraction 2, Ave. [2] | Densitometry values for the Western blots, Fraction 3, Ave. [2] | Densitometry values for the Western blots, Fraction 4, Ave. [2] | Densitometry values for the Western blots, Fraction 1 [2] | Densitometry values for the Western blots, Fraction 2 [2] | Densitometry values for the Western blots, Fraction 3 [2] | Densitometry values for the Western blots, Fraction 4 [2] | Fraction 1 protein content (top fraction, liposome-bound), densitometry [1, 6] | ITC signal [3] | SMILES
precludes binding | 0.0259 | 0.0121 | 0.11 | 0.85 |  | 0.10 and 0.15 and 0.0759 | 0.86 and 0.83 and 0.87 | 0.03 | 0.01 | 0.11 | 0.85 | 0.0333 and 0.0235 and 0.03 | 0.00764 and 0.00497 and 0.0174 | 0.08 and 0.10 and 0.15 | 0.87 and 0.81 | 0.03 and 0.0163 and 0.0322 |  | CCCCCCCCCCCCCC(=O)OC[C@H](COP(=O)([O-])OCC[N+](C)(C)C)OC(=O)CCCCCCCCCCCCC [DMPC, 1,2-dimyristoyl-sn-glycero-3-phosphocholine]
fail to interact | 0.03 | 0.0069 | 0.09 | 0.88 |  |  | 0.88 and 0.93 and 0.85 and 0.84 | 0.05 | 0.00866 | 0.09 | 0.86 | 0.07 and 0.05 and 0.025 and 0.0554 | 0.00695 and 0.01 and 0.00643 and 0.0108 | 0.07 and 0.05 and 0.16 | 0.86 and 0.89 and 0.90 and 0.78 |  |  | CCCCCCCCCCCCC(=O)OC[C@@H](O)COP(=O)(O)OC[C@H](N)C(=O)O [LPS13:0, 1-tridecanoyl-sn-glycero-3-phospho-L-serine]

— PMC9823006 (Nature Communications, 2023)
